Data from patent publication US5756488A, “Composition for improving calcium metabolism” (Kuraray Co., Ltd., priority 1995, dated 1998).

Experiments:
[1] = test system: 1,25-dihydroxyvitamin D3 receptor; details: from the literature; cited from earlier work
[2] = test system: vitamin D-binding protein; details: from the literature; cited from earlier work
[3] = target: T1, vitamin D-binding protein (Rattus norvegicus, UniProt P04276); assay: Assay of affinity for vitamin D-binding protein (displacement of tritium-labeled 25-hydroxyvitamin D3, serum of vitamin D-deficient rat); details: ratio of ED50 with control = 1, for Compounds 1, 2 and 3 30% replacement values were used
T1 construct: from tissue; host or cells: serum of vitamin D-deficient rat, diluted 1:10000, protein not purified
T1 sequence (P04276 17-476): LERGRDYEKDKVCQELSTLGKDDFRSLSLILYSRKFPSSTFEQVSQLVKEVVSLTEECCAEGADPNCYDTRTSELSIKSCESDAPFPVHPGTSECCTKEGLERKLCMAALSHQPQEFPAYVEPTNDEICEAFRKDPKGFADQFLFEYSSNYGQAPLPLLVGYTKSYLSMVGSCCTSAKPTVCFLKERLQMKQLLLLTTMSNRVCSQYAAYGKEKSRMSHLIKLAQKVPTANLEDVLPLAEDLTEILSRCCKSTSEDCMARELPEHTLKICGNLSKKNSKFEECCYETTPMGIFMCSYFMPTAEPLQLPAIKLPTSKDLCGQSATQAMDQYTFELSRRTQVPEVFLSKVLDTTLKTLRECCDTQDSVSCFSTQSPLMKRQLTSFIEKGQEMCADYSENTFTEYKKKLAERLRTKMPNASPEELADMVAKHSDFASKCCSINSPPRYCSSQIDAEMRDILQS
Experimental: Assay of Affinity for Vitamin D-Binding Protein
The serum of vitamin D-deficient rat was diluted 1:10000 with 3.5 mM barbiturate buffer solution (pH 8.6) containing 0.13 M NaCl. […] Then, 500 μl of the diluted solution of vitamin D deficient rat serum was added to each culture tube, which was then subjected to vortex stirring. After incubation at 4° C. for 1 hour, 250 μL of DCC suspension was added and vortex-stirred. Each of the culture tubes was allowed to stand for 15 minutes at 4° C., and centrifuged at 3000 rpm at 4° C. for 10 minutes.

[4] = Acute toxicity tests; details: in vivo

SMILES | Affinity for vitamin D-binding protein relative to 1α,25-dihydroxyvitamin D3 [3] | other results
C=C1/C(=C\C=C2/CCC[C@]3(C)[C@@H]([C@H](C)OCCC(C)(C)O)CC[C@@H]23)C[C@@H](O)C[C@@H]1O [22-oxa-1,25-dihydroxyvitamin D3] | – | Affinity for the D3 receptor relative to 1,25-dihydroxyvitamin D3 [1]: one-eighth; Affinity for vitamin D-binding protein relative to 1,25-dihydroxyvitamin D3 [2]: about one six-hundredth
C=C1/C(=C\C=C2/CCC[C@]3(C)[C@@H]([C@@H](C)[C@H](C)CCC(C)(C)O)CC[C@@H]23)C[C@@H](O)C[C@@H]1O [Compound 1, (20S,22R)-22-methyl-1α,25-dihydroxyvitamin D3] | 1/500 and lowest affinity | Affinity for vitamin D-binding protein relative to 1α,25-dihydroxyvitamin D3 ([3]; listed as (20S,22R)-22-methyl-1α,25-dihydroxyvitamin D3): one five-hundredth and low; Toxicity in acute toxicity tests [4]: low toxicity
C=C1/C(=C\C=C2/CCC[C@]3(C)[C@@H]([C@@H](C)[C@@H](C)CCC(C)(C)O)CC[C@@H]23)C[C@@H](O)C[C@@H]1O [Compound 2, (20S,22S)-22-methyl-1α,25-dihydroxyvitamin D3] | 1/500 | –
C=C1/C(=C\C=C2/CCC[C@]3(C)[C@@H]([C@H](C)[C@H](C)CCC(C)(C)O)CC[C@@H]23)C[C@@H](O)C[C@@H]1O [Compound 3, (20R,22R)-22-methyl-1α,25-dihydroxyvitamin D3] | 1/220 | –
C=C1/C(=C\C=C2/CCC[C@]3(C)[C@@H]([C@H](C)[C@@H](C)CCC(C)(C)O)CC[C@@H]23)C[C@@H](O)C[C@@H]1O [Compound 4, (20R,22S)-22-methyl-1α,25-dihydroxyvitamin D3] | 2/3 | –
